Experimental data from patent US20050064383A1, “Methods and apparatus for producing gender enriched sperm” (priority 2000, published 2005).

Legend:
bull sperm [1] = test: Staining of bull sperm with Hoechst 33342 in TEST buffer, split index on Coulter Epics flow cytometer; assay type: cell-based
Protocol: Bull semen was collected from a sexually mature bull using an artificial vagina and the sample was diluted with citrate buffer (pH 7.0) at 1 part semen: 3 parts buffer. The sample was transferred to the flow cytometry laboratory at 18° C. The concentration of the sample is determined using a hemocytometer and the cells were diluted with an appropriate amount of TEST buffer (pH 7.35) to obtain 100 million sperm per mL. Ten microliters of a stock concentration (5 mg/ml in dH2O) of Hoechst 33342 was added to the sample of sperm and the cells were incubated at 25° C. for up to 4 hours. A second population of cells was handled in like manner but was incubated at 35° C. for 1 hour to serve as a positive control. A third population of cells was handled in like manner but the buffer pH is 7.2 instead of pH 7.35 to determine if buffer pH influences uptake of Hoechst 33342. At one-hour intervals for up to 4 hours, 200 μL micro aliquots were removed from the samples and evaluated using a Coulter Epics flow cytometer. The split index information was collected for each sample per treatment group. [table]

bull sperm [2] = test: Sperm motility/viability after overnight incubation with HO dye; assay type: cell-based; conditions: overnight incubation at 18, 20 or 22° C., 0 hours
Protocol: (§1) Bull sperm in citrate buffer at pH 6.9-7.0 is sent from collection facility to sorter facility by same-day delivery at 18° C. Upon receipt the sperm is divided into three portions and stored and stained overnight with Hoechst 33342 dye at 18° C., 20° C., or 22° C. (all in citrate buffer at pH 6.9).

[3] = Buffer solubility by HPLC; conditions: maximum measurable 90 micromolar
Protocol: One microliter (μL) of the stock solution was then added to 110 μL of aqueous buffer solution placed in an HPLC (high performance liquid chromatography) vial and mixed by inverting a number of times. The samples were allowed to stand for 30 minutes and then centrifuged for 30 minutes. The centrifugation is required to deposit suspended material that could interfere with the analysis to the side of the vial. The solutions were then analyzed by HPLC by sampling the solution without touching the vial bottom or sides. Shown below are the measured quantities remaining in solution in the various buffers.

bull sperm [4] = test: Overnight low temperature staining of bull sperm with Hoechst 33342, separation into X- and Y-sperm by flow cytometry; assay type: cell-based; conditions: citrate buffer pH 6.9
Protocol: as §1

bull sperm [5] = test: Staining of bull sperm with Hoechst dye at 24° C. in citrate or HEPES buffer, separation by flow cytometry; assay type: cell-based
Protocol: Bull sperm are collected at a collection facility, extended in citrate buffer pH 6.9 and sent at 18° C. by overnight express mail to a sorting facility. The sample is divided into two portions, centrifuged to separate sperm from supernatant, and each portion resuspended respectively in citrate buffer and HEPES buffer, both at pH 7.4. 0.1% BSA is present in the HEPES buffer.

CCOc1ccc(-c2nc3ccc(-c4nc5ccc(N6CCN(C)CC6)cc5[nH]4)cc3[nH]2)cc1 [Hoechst 33342]
1 h Split index (bull sperm [1]; 25° C. in TEST pH 7.2): 0% | 2 h split index (bull sperm [1]; 25° C. in TEST pH 7.2): 0% | 3 h split index (bull sperm [1]; 25° C. in TEST pH 7.2): 0% | 4 h split index (bull sperm [1]; 25° C. in TEST pH 7.2): 0% | 1 h Split index (bull sperm [1]; 25° C. in TEST pH 7.35): 0% | 2 h split index (bull sperm [1]; 25° C. in TEST pH 7.35): 0% | 3 h split index (bull sperm [1]; 25° C. in TEST pH 7.35): 10% | 4 h split index (bull sperm [1]; 25° C. in TEST pH 7.35): 30% | 1 h Split index (bull sperm [1]; 35° C. control (positive control), 1 hour): 30% | effect of prolonged exposure to dye medium on sperm viability (motility) (bull sperm [2]): does not compromise sperm viability | quantity remaining in solution (solubility) ([3]; HEPES Buffer pH 6.85): 79 µM | quantity remaining in solution (solubility) ([3]; HEPES Buffer pH 7.02): 73 µM | quantity remaining in solution (solubility) ([3]; HEPES Buffer pH 7.23): 27 µM | quantity remaining in solution (solubility) ([3]; HEPES Buffer pH 7.36): 23 µM | quantity remaining in solution (solubility) ([3]; HEPES Buffer pH 7.52): 36 µM | quantity remaining in solution (solubility) ([3]; TES Buffer pH 6.85): 79 µM | quantity remaining in solution (solubility) ([3]; TES Buffer pH 6.98): 80 µM | quantity remaining in solution (solubility) ([3]; TES Buffer pH 7.19): 78 µM | quantity remaining in solution (solubility) ([3]; TES Buffer pH 7.34): 75 µM | quantity remaining in solution (solubility) ([3]; TES Buffer pH 7.54): 57 µM | quantity remaining in solution (solubility) ([3]; Tris Buffer pH 6.76): 34 µM | quantity remaining in solution (solubility) ([3]; Tris Buffer pH 6.95): 42 µM | quantity remaining in solution (solubility) ([3]; Tris Buffer pH 7.15): 49 µM | quantity remaining in solution (solubility) ([3]; Tris Buffer pH 7.36): 22 µM | quantity remaining in solution (solubility) ([3]; Tris Buffer pH 7.53): 15 µM | separation of Y- and X-bearing sperm by flow cytometry (bull sperm [4]; stained 18° C. o/n, 0 hr incubation @ RT): no separation | separation of Y- and X-bearing sperm by flow cytometry (bull sperm [4]; stained 18° C. o/n, 1.5 hr incubation @ RT): no separation | separation of Y- and X-bearing sperm by flow cytometry (bull sperm [4]; stained 18° C. o/n, 5.0 hr incubation @ RT): no separation | separation of Y- and X-bearing sperm by flow cytometry (bull sperm [4]; stained 20° C. o/n, 0 hr incubation @ RT): no separation | separation of Y- and X-bearing sperm by flow cytometry (bull sperm [4]; stained 20° C. o/n, 1.5 hr incubation @ RT): no separation | separation of Y- and X-bearing sperm by flow cytometry (bull sperm [4]; stained 20° C. o/n, 5.0 hr incubation @ RT): no separation | separation of Y- and X-bearing sperm by flow cytometry (bull sperm [4]; stained 22° C. o/n, 0 hr incubation @ RT): no separation | Sort results after 2.5 h incubation at room temperature (24° C.) (bull sperm [5]; Sperm in HEPES buffer, pH 7.4, 0.1% BSA): Sperm were separated into X and Y | Sort results after 2.5 h incubation at room temperature (24° C.) (bull sperm [5]; Sperm in NaCitrate buffer, pH 7.4): No separation into X and Y
